Results published in paper PMC12057336 (Antimicrobial Agents and Chemotherapy, 2025).

How the values were obtained:
MATE2-K = settings: cited from earlier work
OAT3 = settings: cited from earlier work
OCT3 [1] = settings: cited from earlier work
human OATP2B1 = molecular target: T1, human OATP2B1 (Homo sapiens, UniProt O94956); test: Uptake in OATP2B1-transfected HEK293 cells; settings: 5 µM; 10 min; 37°C; vs mock cells
T1 sequence (O94956 1-709): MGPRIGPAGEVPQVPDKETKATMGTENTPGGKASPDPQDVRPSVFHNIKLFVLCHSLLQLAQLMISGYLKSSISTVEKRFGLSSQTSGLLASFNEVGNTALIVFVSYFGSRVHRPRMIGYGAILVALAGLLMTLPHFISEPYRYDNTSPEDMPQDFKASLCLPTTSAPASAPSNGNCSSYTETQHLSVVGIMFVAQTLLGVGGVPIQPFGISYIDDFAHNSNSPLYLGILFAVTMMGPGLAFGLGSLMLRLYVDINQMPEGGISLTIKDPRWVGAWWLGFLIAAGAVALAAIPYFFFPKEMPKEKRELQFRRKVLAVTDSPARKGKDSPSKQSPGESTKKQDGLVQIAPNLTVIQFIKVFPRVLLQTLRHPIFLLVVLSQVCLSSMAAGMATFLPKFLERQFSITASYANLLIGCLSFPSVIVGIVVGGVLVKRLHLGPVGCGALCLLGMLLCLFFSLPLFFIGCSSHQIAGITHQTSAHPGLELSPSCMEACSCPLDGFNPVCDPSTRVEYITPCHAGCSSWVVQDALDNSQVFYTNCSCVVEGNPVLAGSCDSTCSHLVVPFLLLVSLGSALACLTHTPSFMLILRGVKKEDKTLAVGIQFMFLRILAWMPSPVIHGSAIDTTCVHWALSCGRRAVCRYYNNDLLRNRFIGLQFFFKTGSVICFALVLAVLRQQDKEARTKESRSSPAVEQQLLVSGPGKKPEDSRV
Experimental: OATP1B1-, OATP1B3-, OATP2B1-, NTCP-, OAT1-, and OAT3-transfected HEK293 cells were cultured in DMEM supplemented with 10% FBS, 100 U/mL penicillin-streptomycin at 37°C with 95% relative humidity atmosphere containing 5% CO2. All cells were seeded in 24-well plates at a density of 4 × 10^5 cells/well and cultured for 1–2 days until they reached 80%–90% confluence. Prior to the initiation of uptake studies, the cells were washed twice with HBSS buffer at 37°C. Membrane vesicles were stored at −80°C and thawed at 37°C prior to the initiation of the studies.
All uptake tests were performed in triplicates. The activities of transporter-transfected HEK293 cells were evaluated using relevant positive substrates and inhibitors. E17G (5 µM, OATP1B1 and OATP1B3), ES (2 µM, OATP2B1), ES (5 µM, OAT3), TCA (10 µM, NTCP), and PAH (20 µM, OAT1) were used as substrates of the transporters. The inhibitors for each transporter were rifampicin (200 µM, OATP1B1 and OATP1B3), erlotinib (10 µM, OATP2B1), CsA (20 µM, NTCP), and probenecid (200 µM, OAT1 and OAT3).
The cells were washed three times with ice-cold HBSS buffer. […] The total protein concentration was measured using a BCA Protein Assay Kit. The uptake rates of HEK293-OATP1B1, HEK293-OATP1B3, HEK293-OATP2B1, HEK293-NTCP, HEK293-OAT1, HEK293-OAT3, and mock cells were calculated. […]

OCT1 = settings: cited from earlier work
OCT3 [2] = system: OCT3; parameters: method as in PMID 27645247, PMID 26976869, PMID 27550354; settings: cited from earlier work

In the case of `CC(=O)NC[C@H]1CN(c2ccc(N3CCOCC3)c(F)c2)C(=O)O1` [Linezolid], the “substrate for MATE2-K” value (MATE2-K) is given as “not a substrate”, the “inhibitor of OAT3” value (OAT3) is given as “inhibitor” and the “substrate for OCT3” value (OCT3 [1]) is given as “not a substrate”. The “substrate for OATP2B1” value (human OATP2B1) was “not a substrate”, the “inhibitor of OCT1” value (OCT1) was “not an inhibitor” and the “inhibitor of OCT3” value (OCT3 [2]) was “not an inhibitor”.
